Results from publication PMC8929364, “Metopimazine is primarily metabolized by a liver amidase in humans” (Pharmacology Research & Perspectives, 2021).

Biological target: T1, rhFMO3 (Homo sapiens, UniProt P31513)
T1 construct: purchased Corning Inc
T1 sequence (P31513 1-532): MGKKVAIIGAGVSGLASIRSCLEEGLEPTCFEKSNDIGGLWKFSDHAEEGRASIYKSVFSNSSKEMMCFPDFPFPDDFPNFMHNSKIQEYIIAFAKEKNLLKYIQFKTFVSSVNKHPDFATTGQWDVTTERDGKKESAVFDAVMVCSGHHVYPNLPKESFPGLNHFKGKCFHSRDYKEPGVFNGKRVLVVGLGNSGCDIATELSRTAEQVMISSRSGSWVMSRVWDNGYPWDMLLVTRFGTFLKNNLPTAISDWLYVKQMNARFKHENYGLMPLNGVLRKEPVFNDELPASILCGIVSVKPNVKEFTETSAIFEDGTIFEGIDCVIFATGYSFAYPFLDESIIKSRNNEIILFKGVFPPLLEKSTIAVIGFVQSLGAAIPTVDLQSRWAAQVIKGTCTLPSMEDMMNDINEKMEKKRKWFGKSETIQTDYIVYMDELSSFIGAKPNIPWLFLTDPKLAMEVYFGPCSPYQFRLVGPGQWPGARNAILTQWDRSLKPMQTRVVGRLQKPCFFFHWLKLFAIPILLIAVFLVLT
Test: Incubation of MPZ with recombinant FMO: FMO3
Format: in vitro ADME
Details: 1 µM MPZ, pH 8.4
Procedure: MPZ at 1.0 µM was incubated in triplicate with individual recombinant FMO (Supersomes™ for FMO 1, FMO3, and FMO5). Protein concentrations for all rFMO isoforms were 0.05 mg/ml. A positive control (benzydamine, 100 µM) was incubated for 20 min. The reaction mixture containing MPZ or FMO substrate, KPi buffer (pH 8.4), and FMO Supersomes™ was pre‐incubated at 37°C for 3–5 min. All other procedures were the same as described previously. The negative control reactions were incubated absence of NADPH.

## CS(=O)(=O)c1ccc2c(c1)N(CCCN1CCC(C(N)=O)CC1)c1ccccc1S2 [MPZ, metopimazine]
  metabolism by rhFMO3: did not metabolize MPZ
